Experimental data: patent publication US20260224708A1, “CONJUGATE COMPOUNDS AND COMPOSITIONS” (REZUBIO PHARMACEUTICALS CO., LTD, priority 2023, published 2026)
pEC50: −log10 of the molar value. Where a name gives a salt, the structure may show the parent alone.

Columns and labels:
[1] = Pharmacokinetics in mice, IV and PO; type: in vivo; conditions: mouse, plasma, male ICR (CD-1) mice
Protocol: Male ICR (CD-1) mice at around 4-6 weeks with body weight of around 25 grams (n=3) were purchased from VT-River (Zhejiang, China). After 1-week acclimation, animals were dosed with exemplary compounds intravenously at 1 mpk or orally at 10 mpk (0.5% methylcellulose in PBS as vehicle for both routes of administration). Blood samples (30 μL) were collected via saphenous vein puncture at 5 (IV only), 15, 30, 60, 120, 240, 480, and 1440 min post dose. The blood samples were saved in 0.5 M K2EDTA coated tubes and centrifuged at 4,600 rpm at 4° C. for 5 min. Plasma samples were collected and stored in −80° C. till PK analysis.
Take 10 μL of K2EDTA-treated plasma samples of CD-1 mice, add 200 μL of precipitation solution with internal standard (5 ng/mL Terfenadine in MeOH/ACN), mix well by vortexing for 1 min at room temperature followed by centrifuge at 4° C. and 4000 rpm for 15 min. Save the supernatant as injection for LC-MS/MS quantification of exemplary compounds in plasma samples of mice.
Establish a standard curve before and after each analytical batch, accompanied by quality controls of low, medium, and high concentrations. The number of quality control samples is not less than 6 and should be equal to or more than the number of samples of each batch, and interspersed in sample measurement. Standard curve and quality control samples of each batch must meet the acceptance criteria.

GPR40 = target: T1, GPR40 (Homo sapiens, UniProt O14842); test: IP1 accumulation assay in HEK293 cells stably expressing GPR40; type: cell-based
T1 construct: expressed in transfected cells
Protocol: IP1 accumulation assay was used to evaluate the potency of compounds. HEK293 cells stably expressing GPR40 were cultured in 5% CO2 incubator (ThermoFisher) in maintenance media (Dulbecco's modified Eagle's medium with 4.5 g/L of glucose, 10% fetal bovine serum, 100 μg/mL Hygromycin, and Penicillin (100 U/mL)/Streptomycin (100 μg/mL)) till 100% confluency. Cells were harvested freshly, spun down at 300×g for 5 min, and resuspended in pre-warmed 1×stimulant buffer from Cisbio IP-One HTRF Detection kit (Cisbio). Cell density was adjusted to 2.0×10^6 cells/mL. DMSO was used as blank control and AMG-1638 (CAS #: 1142214-62-7) as positive control. Compounds were prepared at 10 mM in DMSO and 5 nL of 3×serially diluted compounds (10 concentrations) were added to each well of the 384-LDV assay plate (Corning) by using ECHO 550 (Labcyte). Five μL of cells in suspension were transferred into each well by using Multidrop Combi Reagent Dispenser (ThermoFisher). Assay plate was then sealed and incubated at 37° C. for 2 hours. IP-d2 reagent and anti-IP1 reagent were prepared following the manual (Cisbio). Five μL of IP1-d2 and then 5 μL of anti-IP1 antibody was added to each well sequentially. Assay plate was incubated at room temperature for 60 min and then read at 665 nm/615 nm on an Envision plate reader (PerkinElmer). […] Dose curve was fitted and EC50 of each compound was calculated by using XLFit.

T1 sequence (O14842 whole entry): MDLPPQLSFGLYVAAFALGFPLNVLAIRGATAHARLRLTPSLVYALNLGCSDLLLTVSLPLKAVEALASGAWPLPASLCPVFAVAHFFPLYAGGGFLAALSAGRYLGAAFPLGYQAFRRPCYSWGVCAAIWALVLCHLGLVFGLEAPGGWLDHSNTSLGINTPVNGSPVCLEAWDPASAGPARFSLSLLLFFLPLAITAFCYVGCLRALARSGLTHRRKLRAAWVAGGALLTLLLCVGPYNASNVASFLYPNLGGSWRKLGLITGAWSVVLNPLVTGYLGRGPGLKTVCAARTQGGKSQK

| SMILES | clearance ([1]; 1 mg/kg, IV 1 mpk) [mL/min/kg] | also measured |
| --- | --- | --- |
| COc1ccc(C(=O)N(CC(C)(C)CCCCCCCCCCCCCCCCCCCC(=O)NCCC[N+](C)(CC(=O)[O-])CC(=O)O)c2cccc(C)n2)c(N2CCC(COc3cc([C@@H](CC(=O)O)C4CC4)ccn3)CC2)c1 (stereo partly drawn) [Example 14] | 0.2 |  |
| COc1ccc(C(=O)N(CC(C)(C)CCCCCCCCCCCCCCCCCCCC(=O)NCC[N+](C)(CC(=O)NCCN)CC(=O)NCCN)c2cccc(C)n2)c(N2CCC(COc3cc([C@@H](CC(=O)O)C4CC4)ccn3)CC2)c1 [Example 4] | 0.22 |  |
| COc1ccc(C(=O)N(CC(C)(C)CCn2cc(CCCCCCCCCCCCCCCCCC(=O)NCCC[N+]34CCN(CC3)CC4)nn2)c2cccc(C)n2)c(N2CCC(COc3cc([C@@H](CC(=O)O)C4CC4)ccn3)CC2)c1 [Example 34] |  | pEC50 (GPR40): 9.49 |
| COc1ccc(C(=O)N(CC(C)(C)CCCCCCCCCCCCCCCCCC(=O)NCCC[N+](C)(CC(=O)NCCN)CC(=O)NCCN)c2cccc(C)n2)c(N2CCC(COc3cc([C@@H](CC(=O)O)C4CC4)ccn3)CC2)c1 [Example 12] | 0.15 |  |
| COc1ccc(C(=O)N(CC(C)(C)CCCCCCCCCCCCCCCCCCCC(=O)NCCCN(CC(=O)O)CC(=O)O)c2cccc(C)n2)c(N2CCC(COc3cc([C@@H](CC(=O)O)C4CC4)ccn3)CC2)c1 [Example 13] | 0.14 |  |
| COc1ccc(C(=O)N(CC(C)(C)CCCCCCCCCCCCCCCCCC(=O)NCC[N+](C)(CCCC(=O)NCCN)CCCC(=O)NCCN)c2cccc(C)n2)c(N2CCC(COc3cc([C@@H](CC(=O)O)C4CC4)ccn3)CC2)c1 [Example 17] | 0.1 | AUC ([1]; 1 mg/kg, IV 1 mpk): 104 µM·h; half-life ([1]; 1 mg/kg, IV 1 mpk): 10.5 h; Cmax ([1]; 10 mg/kg, PO 10 mpk): 238 nM; Tmax ([1]; 10 mg/kg, PO 10 mpk): 6.7 h; bioavailability ([1]; 10 mg/kg, PO 10 mpk, oral bioavailability): 0.41%; pEC50 (GPR40): 9.96 |

The next lines start with results.

| clearance ([1]; 1 mg/kg, IV 1 mpk) [mL/min/kg] | SMILES | also measured |
| --- | --- | --- |
| 0.43 | COc1ccc(C(=O)N(CC(C)(C)CCCCCCCCCCCCCCCCCC(=O)NCCC[N+]23CC[N+](C)(CC2)CC3)c2cccc(C)n2)c(N2CCC(COc3cc([C@@H](CC(=O)O)C4CC4)ccn3)CC2)c1 [Example 19] |  |
| 0.32 | COc1ccc(C(=O)N(CC(C)(C)CCCCCCCCCCCCCCCCCC(=O)NCCC[N+]23CCN(CC2)CC3)c2cccc(C)n2)c(N2CCC(COc3cc([C@@H](CC(=O)O)C4CC4)ccn3)CC2)c1 [Example 18, (S)-1-(3-(20-(2-(4-(((4-(2-carboxy-1-cyclopropylethyl)pyridin-2-yl)oxy)methyl)piperidin-1-yl)-4-methoxy-N-(6-methylpyridin-2-yl)benzamido)-19,19-dimethylicosanamido)propyl)-1,4-diazabicyclo[2.2.2]octan-1-ium TFA salt] |  |
| 0.67 | COc1ccc(C(=O)N(CC(C)(C)CCCCCCCCCCCCCCCCCCCCCC[N+]23CCN(CC2)CC3)c2cccc(C)n2)c(N2CCC(COc3cc([C@@H](CC(=O)O)C4CC4)ccn3)CC2)c1 [Example 21, (S)-1-(24-(2-(4-(((4-(2-carboxy-1-cyclopropylethyl)pyridin-2-yl)oxy)methyl)piperidin-1-yl)-4-methoxy-N-(6-methylpyridin-2-yl)benzamido)-23,23-dimethyltetracosyl)-1,4-diazabicyclo[2.2.2]octan-1-ium] |  |
